Key:
[1] = tested on: P388/0; experiment: In vitro cytotoxicity assay (Alamar Blue), P388/0 cells; type: cell-based; conditions: 3 days incubation
Procedure: Cell Lines and Cytotoxicity Assays. Studies using P388/0 cell lines for IC50 (drug concentration inhibiting growth of cells by 50%) were maintained and conducted using standard procedures. Briefly, for IC50 determination, cells were seeded into the microwell plates at a density of 2×10^3 cells per 50 μL per well. Plates were incubated at 37° C. in a humidified incubator with 5% CO2 for 3 days. Cell growth was measured by the addition of 10 μL/well of Alamar Blue (Alamar Biosciences, Inc., Sacramento, Calif.) and the plates were incubated a further 4 hours at 37° C. The IC50 values for each compound were determined from absorbance versus dilution factor plots. All cell cultures for animal implantation were maintained at 37° C. in a humidified atmosphere of 5% CO2/[…] and subcultured once a week. All cell lines were periodically tested for Mycoplasma and were Mycoplasma free.

[2] = tested on: subcutaneous human non-small cell lung carcinoma (LX-1); experiment: In vivo efficacy against subcutaneous LX-1 tumor xenograft in nude mice; conditions: for Effectiveness in LX-1 solid tumor model (in words): Ara-C 100 mg/kg/dose, PEG-ara-C 20 mg/kg/dose (one fifth of native dose), i.v. x4; for Mean Vol. ± SEM at Day 24 / % Change ± SEM at Day 24 (mean percent change in individual tumor volumes from initial): LX-1 s.c. in nude mice, PEG-Ara-C 80 mg/kg; for Mean Vol. ± SEM at Day 24: i.v. x4 doses (day 1, 4, 7, 10), baseline 300 mm^3; for Mean Vol. ± SEM at Day 24 / % Change ± SEM at Day 24 (mean percent change in individual tumor volumes from initial) / T/C (%) at Day 7 / T/C (%) at Day 24 / Regression at Day 24 (#/Grp) / Complete Regression (#/Grp): total dose Ara-C 400 mg/kg; for % Change ± SEM at Day 24 (mean percent change in individual tumor volumes from initial): i.v. x4 doses; for T/C (%) at Day 7: median tumor volume treated vs control when control median approx. 1000 mm^3 (day 7); for T/C (%) at Day 7 / T/C (%) at Day 24 / Regression at Day 24 (#/Grp) / Complete Regression (#/Grp): PEG-Ara-C 80 mg/kg i.v.; for T/C (%) at Day 24: median tumor volume treated vs control when control median approx. 2400 mm^3 (day 24); for Regression at Day 24 (#/Grp): smaller tumor volume on day 24 compared to day 1
Procedure: Athymic nude mice were implanted subcutaneous with a 4-5 mm^3 tissue fragment of LX-1 collected from donor mice. The tumor trocar site was observed twice weekly and measured once palpable. […] The mice were sorted to evenly distribute tumor size, grouped into 6 to 7 mice per group, and ear punched for permanent identification. Drugs were administered intravenously every 3 days×4 doses (day 1, 4, 7 and 10) via the tail vein at an approximate rate of 0.5 mL per minute. […] Therefore, this study compares the PEG-conjugate at one fifth the native dose, and presumably much less than its MTD. Mouse weight and tumor size were measured at the beginning of study and twice weekly through week 4. Drug effectiveness were determined by comparing tumor growth in treated versus untreated (no vehicle) control mice. Five types of endpoints were used as the basis for comparison: (a) mean tumor volumes at day 24; (b) mean percent change in individual tumor volumes from initial; (c) percent difference in tumor volume (%T/C), measured when the control group's median tumor volume reached approximately 800-1100 mm^3 (exponential growth phase); (d) percent difference in tumor volume (%T/C) at day 24 and (e) the number of tumor regression (smaller tumor volume on day 24 compared to day 1) per group.

PEG-amide-Gemcitabine [PEG-Gemcitabine]
IC50 [1]: 0.046 µM

Nc1ccn([C@@H]2O[C@H](CO)[C@@H](O)[C@@H]2O)c(=O)n1 [Ara-C, 1-(β-D-arabinofuranosyl)cytosine]
IC50 ([1]; Mus musculus, 72 h): 0.01 µM | Effectiveness in LX-1 solid tumor model (in words) [2]: ineffective | Mean Vol. ± SEM at Day 24 [2]: 3192.5 mm^3 | % Change ± SEM at Day 24 (mean percent change in individual tumor volumes from initial) [2]: 1514.8% | T/C (%) at Day 7 [2]: 112.2% | T/C (%) at Day 24 [2]: 144.6% | Regression at Day 24 (#/Grp) [2]: 0/7 | Complete Regression (#/Grp) [2]: 0/7

PEG-amide-Ara-C [PEG-Ara-C]
IC50 [1]: 0.012 µM | Effectiveness in LX-1 solid tumor model (in words) [2]: significant tumor growth inhibition | Mean Vol. ± SEM at Day 24 [2]: 2205.0 mm^3 | % Change ± SEM at Day 24 (mean percent change in individual tumor volumes from initial) [2]: 557.4% | T/C (%) at Day 7 [2]: 76.4% | T/C (%) at Day 24 [2]: 73.0% | Regression at Day 24 (#/Grp) [2]: 1/6 | Complete Regression (#/Grp) [2]: 1/6

Nc1ccn([C@@H]2O[C@H](CO)[C@@H](O)C2(F)F)c(=O)n1 [Gemcitabine, gemcitabine]
IC50 ([1]; Mus musculus, 72 h): 0.002 µM

Reference: patent US6376470B1, “Polymer conjugates of ara-C and ara-C derivatives” (Enzon, Inc., priority 1999, dated 2002)
